In ChEMBL document CHEMBL1151588, “1,2-diaminobenzimidazoles : Selective inhibitors of nitric oxide synthase derived from aminoguanidine” (Bioorg Med Chem Lett, 1995):

Assays:
[1] = biological target: T1, Nitric oxide synthase, inducible (Mus musculus, UniProt P29477); test: Tested to inhibit the conversion of [3H]L-arginine to [3H]L-citrulline catalyzed by inducible NOS from mouse macrophage J774 cells; format: cell-based
T1 sequence (P29477 whole entry): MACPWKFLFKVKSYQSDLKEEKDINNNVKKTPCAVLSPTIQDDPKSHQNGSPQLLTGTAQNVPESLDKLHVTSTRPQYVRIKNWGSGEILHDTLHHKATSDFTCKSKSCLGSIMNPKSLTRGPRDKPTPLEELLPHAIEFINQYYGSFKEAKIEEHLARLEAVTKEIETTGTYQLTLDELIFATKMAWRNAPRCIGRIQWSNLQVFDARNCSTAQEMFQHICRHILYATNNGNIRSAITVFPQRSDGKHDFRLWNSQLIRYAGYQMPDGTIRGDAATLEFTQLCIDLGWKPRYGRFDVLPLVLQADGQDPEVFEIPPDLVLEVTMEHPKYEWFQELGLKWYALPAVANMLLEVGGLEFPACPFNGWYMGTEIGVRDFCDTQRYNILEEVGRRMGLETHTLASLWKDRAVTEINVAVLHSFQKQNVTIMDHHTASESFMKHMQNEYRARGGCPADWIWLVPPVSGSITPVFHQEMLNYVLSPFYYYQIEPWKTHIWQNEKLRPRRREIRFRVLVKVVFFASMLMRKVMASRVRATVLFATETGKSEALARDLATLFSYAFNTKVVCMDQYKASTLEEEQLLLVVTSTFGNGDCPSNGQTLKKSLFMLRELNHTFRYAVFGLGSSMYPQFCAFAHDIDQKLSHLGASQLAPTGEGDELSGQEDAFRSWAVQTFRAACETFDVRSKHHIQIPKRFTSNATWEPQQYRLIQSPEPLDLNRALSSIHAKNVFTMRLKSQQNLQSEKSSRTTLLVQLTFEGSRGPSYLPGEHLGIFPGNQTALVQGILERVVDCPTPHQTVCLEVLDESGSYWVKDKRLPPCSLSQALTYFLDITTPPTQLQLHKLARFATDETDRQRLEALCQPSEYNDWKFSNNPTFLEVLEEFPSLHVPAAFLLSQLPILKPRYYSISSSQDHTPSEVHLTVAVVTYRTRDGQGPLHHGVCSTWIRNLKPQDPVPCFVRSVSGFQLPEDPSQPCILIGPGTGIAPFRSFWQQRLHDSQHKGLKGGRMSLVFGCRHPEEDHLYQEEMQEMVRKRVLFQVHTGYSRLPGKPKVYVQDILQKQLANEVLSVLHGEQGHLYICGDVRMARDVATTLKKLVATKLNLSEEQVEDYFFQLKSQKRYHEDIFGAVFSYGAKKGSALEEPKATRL

[2] = biological target: T2, Nitric oxide synthase, inducible (Homo sapiens, UniProt P35228); test: Tested to inhibit the conversion of [3H]L-arginine to [3H]L-citrulline catalyzed by inducible NOS from human DLD-1 cells.; format: cell-based
Nitric oxide synthase 3 [3] = biological target: T3, Nitric oxide synthase 3 (Homo sapiens, UniProt P29474); test: Tested to inhibit the conversion of [3H]L-arginine to [3H]L-citrulline catalyzed by endothelial NOS from human umbilical vein endothelial cells; No significant inhibition; format: cell-based; details: endothelial cell
T3 sequence (P29474 whole entry): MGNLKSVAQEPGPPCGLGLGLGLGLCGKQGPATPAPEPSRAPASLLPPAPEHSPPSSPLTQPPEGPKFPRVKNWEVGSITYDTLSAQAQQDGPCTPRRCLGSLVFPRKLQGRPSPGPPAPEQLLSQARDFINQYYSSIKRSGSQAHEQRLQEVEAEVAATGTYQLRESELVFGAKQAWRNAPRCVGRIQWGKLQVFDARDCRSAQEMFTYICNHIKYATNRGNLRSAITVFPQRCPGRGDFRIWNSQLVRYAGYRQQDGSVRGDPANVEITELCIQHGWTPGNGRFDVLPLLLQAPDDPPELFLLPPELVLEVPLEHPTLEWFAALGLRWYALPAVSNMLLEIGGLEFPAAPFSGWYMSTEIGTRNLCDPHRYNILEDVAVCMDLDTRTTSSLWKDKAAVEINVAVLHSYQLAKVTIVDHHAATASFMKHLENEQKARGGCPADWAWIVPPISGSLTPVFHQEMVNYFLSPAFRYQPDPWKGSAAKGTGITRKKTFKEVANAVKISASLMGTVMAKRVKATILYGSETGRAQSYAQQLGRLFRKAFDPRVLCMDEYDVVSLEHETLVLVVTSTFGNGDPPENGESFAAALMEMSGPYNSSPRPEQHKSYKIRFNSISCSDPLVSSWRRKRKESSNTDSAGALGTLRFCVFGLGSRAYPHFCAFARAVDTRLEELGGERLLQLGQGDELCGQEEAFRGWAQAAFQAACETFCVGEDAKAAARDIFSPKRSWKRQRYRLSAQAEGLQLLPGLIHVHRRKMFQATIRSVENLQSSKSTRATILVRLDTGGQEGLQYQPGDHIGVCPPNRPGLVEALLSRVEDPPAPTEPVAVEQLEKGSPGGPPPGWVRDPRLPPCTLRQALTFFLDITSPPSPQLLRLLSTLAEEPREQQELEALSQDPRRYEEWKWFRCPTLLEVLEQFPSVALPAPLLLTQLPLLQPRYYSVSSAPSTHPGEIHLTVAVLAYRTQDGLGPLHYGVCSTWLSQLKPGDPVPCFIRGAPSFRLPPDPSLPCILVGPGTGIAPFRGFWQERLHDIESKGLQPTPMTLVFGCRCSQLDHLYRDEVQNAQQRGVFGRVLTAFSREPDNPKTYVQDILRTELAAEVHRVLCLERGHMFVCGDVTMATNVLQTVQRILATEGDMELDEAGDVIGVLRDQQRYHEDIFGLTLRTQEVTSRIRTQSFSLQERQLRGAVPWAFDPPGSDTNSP

[4] = biological target: T2, Nitric oxide synthase, inducible; test: Tested to inhibit the conversion of [3H]-L-arginine to [3H]L-citrulline catalyzed by inducible NOS from human DLD-1 cells at concentration below 100 uM; No significant inhibition; format: cell-based
Nitric oxide synthase 1 [5] = biological target: T4, Nitric oxide synthase 1 (Rattus norvegicus, UniProt P29476); test: Tested to inhibit the conversion of [3H]L-arginine to [3H]L-citrulline catalyzed by neuronal NOS from rat cerebellum.; format: tissue-based
[6] = biological target: T1, Nitric oxide synthase, inducible; test: Tested to inhibit the conversion of [3H]L-arginine to [3H]L-citrulline catalyzed by inducible NOS from mouse macrophage J774 cells at concentration below 100 uM; No significant inhibition; format: cell-based
Nitric oxide synthase 1 [7] = biological target: T4, Nitric oxide synthase 1; test: Tested to inhibit the conversion of [3H]L-arginine to [3H]L-citrulline catalyzed by neuronal NOS from rat cerebellum at concentration below 100 uM; No significant inhibition
Nitric oxide synthase 3 [8] = biological target: T3, Nitric oxide synthase 3; test: Tested to inhibit the conversion of [3H]L-arginine to [3H]L-citrulline catalyzed by endothelial NOS from human umbilical vein endothelial cells at concentration below 100 uM; No significant inhibition; format: cell-based; details: endothelial cell

T4 sequence (P29476 whole entry): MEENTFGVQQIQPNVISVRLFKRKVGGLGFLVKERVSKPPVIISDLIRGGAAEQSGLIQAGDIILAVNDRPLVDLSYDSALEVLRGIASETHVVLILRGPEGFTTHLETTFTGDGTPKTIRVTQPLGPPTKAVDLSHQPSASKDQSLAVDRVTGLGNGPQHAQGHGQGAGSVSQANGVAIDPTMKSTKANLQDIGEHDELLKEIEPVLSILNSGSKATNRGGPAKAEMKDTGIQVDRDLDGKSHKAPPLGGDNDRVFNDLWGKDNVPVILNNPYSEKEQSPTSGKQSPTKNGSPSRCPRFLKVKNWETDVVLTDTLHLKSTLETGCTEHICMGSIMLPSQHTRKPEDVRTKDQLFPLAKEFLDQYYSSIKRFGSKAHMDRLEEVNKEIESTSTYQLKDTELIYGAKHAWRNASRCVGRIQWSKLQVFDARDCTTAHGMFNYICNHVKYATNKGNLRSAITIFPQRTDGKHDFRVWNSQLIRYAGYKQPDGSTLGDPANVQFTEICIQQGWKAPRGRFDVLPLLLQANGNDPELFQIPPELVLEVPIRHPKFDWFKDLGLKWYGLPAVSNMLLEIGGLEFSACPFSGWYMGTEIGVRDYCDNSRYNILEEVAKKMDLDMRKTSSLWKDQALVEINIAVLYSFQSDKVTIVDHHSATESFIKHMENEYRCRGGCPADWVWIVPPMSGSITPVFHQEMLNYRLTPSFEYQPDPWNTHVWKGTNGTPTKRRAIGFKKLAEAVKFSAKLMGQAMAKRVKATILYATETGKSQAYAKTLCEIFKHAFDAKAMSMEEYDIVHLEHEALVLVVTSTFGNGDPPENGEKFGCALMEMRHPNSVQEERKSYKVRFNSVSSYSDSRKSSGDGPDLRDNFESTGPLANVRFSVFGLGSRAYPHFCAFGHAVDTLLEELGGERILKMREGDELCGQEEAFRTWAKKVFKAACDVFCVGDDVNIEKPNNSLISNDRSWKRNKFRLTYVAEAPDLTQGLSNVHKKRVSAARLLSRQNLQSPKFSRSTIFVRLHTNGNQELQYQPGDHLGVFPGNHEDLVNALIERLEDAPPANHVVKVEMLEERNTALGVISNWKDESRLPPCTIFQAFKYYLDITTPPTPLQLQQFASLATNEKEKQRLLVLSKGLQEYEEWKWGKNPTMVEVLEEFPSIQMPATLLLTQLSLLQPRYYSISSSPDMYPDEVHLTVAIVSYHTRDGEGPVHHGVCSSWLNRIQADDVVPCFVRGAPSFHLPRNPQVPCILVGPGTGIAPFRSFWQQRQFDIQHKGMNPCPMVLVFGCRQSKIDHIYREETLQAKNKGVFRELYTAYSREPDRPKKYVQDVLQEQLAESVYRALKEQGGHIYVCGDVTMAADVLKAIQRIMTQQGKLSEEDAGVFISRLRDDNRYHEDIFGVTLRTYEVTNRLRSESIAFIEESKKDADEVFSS
T2 sequence (P35228 whole entry): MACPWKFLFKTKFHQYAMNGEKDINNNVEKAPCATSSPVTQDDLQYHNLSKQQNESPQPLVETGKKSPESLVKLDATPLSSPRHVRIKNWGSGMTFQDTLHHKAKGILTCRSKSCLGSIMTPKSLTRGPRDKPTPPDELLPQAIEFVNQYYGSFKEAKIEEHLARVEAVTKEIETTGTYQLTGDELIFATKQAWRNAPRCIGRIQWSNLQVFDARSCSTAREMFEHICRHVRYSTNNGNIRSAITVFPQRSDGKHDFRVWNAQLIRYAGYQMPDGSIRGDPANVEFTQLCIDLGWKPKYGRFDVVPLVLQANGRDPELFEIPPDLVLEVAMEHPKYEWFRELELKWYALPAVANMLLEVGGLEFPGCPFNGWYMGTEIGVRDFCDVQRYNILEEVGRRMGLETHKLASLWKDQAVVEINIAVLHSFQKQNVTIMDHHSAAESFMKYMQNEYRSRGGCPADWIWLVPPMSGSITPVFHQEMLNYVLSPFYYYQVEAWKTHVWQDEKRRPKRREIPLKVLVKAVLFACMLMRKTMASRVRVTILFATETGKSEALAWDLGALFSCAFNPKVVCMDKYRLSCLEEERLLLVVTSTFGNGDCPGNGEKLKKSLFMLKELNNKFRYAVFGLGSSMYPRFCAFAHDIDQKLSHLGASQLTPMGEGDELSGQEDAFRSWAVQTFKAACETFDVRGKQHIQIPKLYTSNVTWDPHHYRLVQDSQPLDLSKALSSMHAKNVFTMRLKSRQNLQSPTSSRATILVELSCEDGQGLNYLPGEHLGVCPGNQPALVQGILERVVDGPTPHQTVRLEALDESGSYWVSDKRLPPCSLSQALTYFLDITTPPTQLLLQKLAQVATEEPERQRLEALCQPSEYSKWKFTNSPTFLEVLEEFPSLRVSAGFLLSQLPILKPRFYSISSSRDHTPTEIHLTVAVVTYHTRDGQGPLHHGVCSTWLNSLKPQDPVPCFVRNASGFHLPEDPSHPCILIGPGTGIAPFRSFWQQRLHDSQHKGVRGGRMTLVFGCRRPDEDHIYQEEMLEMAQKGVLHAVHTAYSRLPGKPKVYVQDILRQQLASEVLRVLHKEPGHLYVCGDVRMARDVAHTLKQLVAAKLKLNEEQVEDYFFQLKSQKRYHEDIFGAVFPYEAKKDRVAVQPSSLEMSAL

IC50 [1] [µM] | IC50 [2] [µM] | IC50 (Nitric oxide synthase 3 [3]) | IC50 [4] | IC50 (Nitric oxide synthase 1 [5]) [µM] | IC50 [6] | Structure (SMILES) | IC50 (Nitric oxide synthase 1 [7]) | IC50 (Nitric oxide synthase 3 [8])
20 | 24 |  |  |  |  | O=[N+]([O-])c1cccc2cn[nH]c12 [7-NITROINDAZOLE] |  | 
 |  | Not Active | Not Active | 5.8 | Not Active | CNn1c(N)nc2ccccc21 |  | 
31 | 25 |  |  | 77 |  | Nc1nc2ccccc2n1N |  | Not Active

Structure (SMILES) | IC50 [1] [µM] | IC50 [2] [µM] | IC50 (Nitric oxide synthase 3 [3]) | IC50 [4] | IC50 (Nitric oxide synthase 1 [5]) [µM] | IC50 [6] | IC50 (Nitric oxide synthase 1 [7]) | IC50 (Nitric oxide synthase 3 [8])
N=C(N)NN [PIMAGEDINE] | 9 | 54 |  |  |  |  | Not Active | Not Active
